Numbered stars: 1 amine (or outer) side, 2 acyl side, 3 side chain; on linkers, the order of the positions; unused ones are H or OH. Bridge positions count the residues as written; N and C are the ends. Side chains are listed from the residue outwards. Peptide text beside a SMILES is read from it. * marks the point of attachment. γGlu = O=C(O)[C@H](CCC(=O)[*:2])N[*:1]; Palmitoyl = CCCCCCCCCCCCCCCC(=O)*
test system: mice; assay: Forced swim test (FST); format: in vivo, mouse; conditions: qualitative result; 0.03 mg/kg dosing, as in Example 8
Text: The forced swim test (FST) is a commonly used paradigm to evaluate antidepressant activity of drugs. The FST is based on measurement of the animal's floating time in a tank filled with water. When rats or mice are forced to swim in a deep cylinder with tepid water they become nearly immobile and cease trying to escape. Without wishing to be bound by any theory, it is believe that this characteristic immobile posture reflects a depressive-like state which is readily influenced by a wide variety of antidepressants. See, e.g., Hedou et al., 2001, Pharmacol, Biochem. Behay. 70:65-76; Chaki et al., 2003, J. Pharmacol. Exp. Ther. 304:818-826; Porsolt et al., 1977, Nature 266:730-732. Antidepressants decrease the immobility time in the FST. Vehicle or test compound can be delivered continuously for two weeks to mice by subcutaneously implanted osmotic pumps prior to the FST. Indeed, any route of administration (e.g., intraperitoneal, subcutaneous, oral and the like) is available. Mice can be placed in the water tank for assessment of climbing, swimming, and immobility over a defined trial session, typically 6 minutes. Test session parameters for mice and rats are typically different, as known in the art.
The forced swim test (FST) is a commonly used paradigm to evaluate antidepressant activity of drugs. […] Specifically, vehicle or test compound was delivered continuously for two weeks to mice by subcutaneously implanted osmotic pumps prior to the FST assay, by methods well known in the art. On day one, the patients were introduced into the tank for a 15 minute pre-swim session. On day two, the patients were placed back into the water tank for assessment of climbing, swimming, and immobility over a 6 minute trial session. The rate of compound infusion was 0.03 mg/kg/day.

SMILES | FST Assay, 0.03 mg/kg
CCCCCCCCCCCCCCCC(=O)N[C@@H](CCC(=O)NCCCC[C@H](NC(=O)[C@H](Cc1c[nH]cn1)NC(=O)[C@H](CC(C)C)NC(=O)[C@H](CCC(=O)O)NC(=O)[C@H](CCC(N)=O)NC(=O)[C@H](C)NC(=O)[C@H](CC(C)C)NC(=O)[C@H](CCCNC(=N)N)NC(=O)[C@H](CCC(N)=O)NC(=O)[C@H](CC(C)C)NC(=O)[C@H](C)NC(=O)[C@@H]1CSSC[C@H](NC(=O)[C@@H](N)CCCCN)C(=O)N[C@@H](CC(N)=O)C(=O)N[C@@H]([C@@H](C)O)C(=O)N[C@@H](C)C(=O)N[C@@H]([C@@H](C)O)C(=O)N1)C(=O)N[C@@H](CC(C)C)C(=O)N[C@@H](CCC(N)=O)C(=O)N[C@H](C(=O)N[C@@H](Cc1ccc(O)cc1)C(=O)N1CCC[C@H]1C(=O)N[C@@H](CCCNC(=N)N)C(=O)N[C@H](C(=O)N[C@@H](CC(N)=O)C(=O)N[C@H](C(=O)NCC(=O)N[C@@H](CO)C(=O)N[C@@H](CC(N)=O)C(=O)N[C@H](C(=O)N[C@@H](Cc1ccc(O)cc1)C(N)=O)[C@@H](C)O)C(C)C)[C@@H](C)O)[C@@H](C)O)C(=O)O [Cmpd 186, [K^18ε-(γ-Glu(Nα-C16-Chain))]-Cmpd 17] (H-KCNTATCALQRLAQELHK([γGlu-Palmitoyl])LQTYPRTNVGSNTY-NH2; disulfide 2-7 (inferred); N-terminus assumed) | Inactive
CCCCCCCCCCCCCCCC(=O)N[C@@H](CCC(=O)NCCCC[C@H](NC(=O)[C@H](CCC(N)=O)NC(=O)[C@H](CC(C)C)NC(=O)[C@H](CCCNC(=N)N)NC(=O)[C@H](Cc1c[nH]cn1)NC(=O)[C@H](CC(C)C)NC(=O)[C@H](CCC(=O)O)NC(=O)[C@H](CCC(N)=O)NC(=O)[C@H](C)NC(=O)[C@H](CC(C)C)NC(=O)[C@H](CCCNC(=N)N)NC(=O)[C@H](CCC(N)=O)NC(=O)[C@H](CC(C)C)NC(=O)[C@H](C)NC(=O)[C@@H]1CSSC[C@H](NC(=O)[C@@H](N)CCCCN)C(=O)N[C@@H](CC(N)=O)C(=O)N[C@@H]([C@@H](C)O)C(=O)N[C@@H](C)C(=O)N[C@@H]([C@@H](C)O)C(=O)N1)C(=O)N[C@@H](Cc1ccc(O)cc1)C(=O)N1CCC[C@H]1C(=O)N[C@@H](CCCNC(=N)N)C(=O)N[C@H](C(=O)N[C@@H](CC(N)=O)C(=O)N[C@H](C(=O)NCC(=O)N[C@@H](CO)C(=O)N[C@@H](CC(N)=O)C(=O)N[C@H](C(=O)N[C@@H](Cc1ccc(O)cc1)C(N)=O)[C@@H](C)O)C(C)C)[C@@H](C)O)C(=O)O [Cmpd 187, [K^21ε-(γ-Glu(Nα-C16-Chain))]-Cmpd 17] (H-KCNTATCALQRLAQELHRLQK([γGlu-Palmitoyl])YPRTNVGSNTY-NH2; disulfide 2-7 (inferred); N-terminus assumed) | Inactive
CCCCCCCCCCCCCCCC(=O)N[C@@H](CCC(=O)NCCCC[C@H](NC(=O)[C@@H]1CCCN1C(=O)[C@H](Cc1ccc(O)cc1)NC(=O)[C@@H](NC(=O)[C@H](CCC(N)=O)NC(=O)[C@H](CC(C)C)NC(=O)[C@H](CCCNC(=N)N)NC(=O)[C@H](Cc1c[nH]cn1)NC(=O)[C@H](CC(C)C)NC(=O)[C@H](CCC(=O)O)NC(=O)[C@H](CCC(N)=O)NC(=O)[C@H](C)NC(=O)[C@H](CC(C)C)NC(=O)[C@H](CCCNC(=N)N)NC(=O)[C@H](CCC(N)=O)NC(=O)[C@H](CC(C)C)NC(=O)[C@H](C)NC(=O)[C@@H]1CSSC[C@H](NC(=O)[C@@H](N)CCCCN)C(=O)N[C@@H](CC(N)=O)C(=O)N[C@@H]([C@@H](C)O)C(=O)N[C@@H](C)C(=O)N[C@@H]([C@@H](C)O)C(=O)N1)[C@@H](C)O)C(=O)N[C@H](C(=O)N[C@@H](CC(N)=O)C(=O)N[C@H](C(=O)NCC(=O)N[C@@H](CO)C(=O)N[C@@H](CC(N)=O)C(=O)N[C@H](C(=O)N[C@@H](Cc1ccc(O)cc1)C(N)=O)[C@@H](C)O)C(C)C)[C@@H](C)O)C(=O)O [Cmpd 188, [K^24ε-(γ-Glu(Nα-C16-Chain))]-Cmpd 17] (H-KCNTATCALQRLAQELHRLQTYPK([γGlu-Palmitoyl])TNVGSNTY-NH2; disulfide 2-7 (inferred); N-terminus assumed) | Inactive
CCCCCCCCCCCCCCCC(=O)N[C@@H](CCC(=O)NCCCC[C@H](N)C(=O)N[C@H]1CSSC[C@@H](C(=O)N[C@@H](C)C(=O)N[C@@H](CC(C)C)C(=O)N[C@@H](CCC(N)=O)C(=O)N[C@@H](CCCNC(=N)N)C(=O)N[C@@H](CC(C)C)C(=O)N[C@@H](C)C(=O)N[C@@H](CCC(N)=O)C(=O)N[C@@H](CCC(=O)O)C(=O)N[C@@H](CC(C)C)C(=O)N[C@@H](Cc2c[nH]cn2)C(=O)N[C@@H](CCCNC(=N)N)C(=O)N[C@@H](CC(C)C)C(=O)N[C@@H](CCC(N)=O)C(=O)N[C@H](C(=O)N[C@@H](Cc2ccc(O)cc2)C(=O)N2CCC[C@H]2C(=O)N[C@@H](CCCNC(=N)N)C(=O)N[C@H](C(=O)N[C@@H](CC(N)=O)C(=O)N[C@H](C(=O)NCC(=O)N[C@@H](CO)C(=O)N[C@@H](CC(N)=O)C(=O)N[C@H](C(=O)N[C@@H](Cc2ccc(O)cc2)C(N)=O)[C@@H](C)O)C(C)C)[C@@H](C)O)[C@@H](C)O)NC(=O)[C@H]([C@@H](C)O)NC(=O)[C@H](C)NC(=O)[C@H]([C@@H](C)O)NC(=O)[C@H](CC(N)=O)NC1=O)C(=O)O [Cmpd 192, [K^1ε-(γ-Glu(Nα-C16-Chain))]-Cmpd 17] (H-K([γGlu-Palmitoyl])CNTATCALQRLAQELHRLQTYPRTNVGSNTY-NH2; disulfide 2-7 (inferred); N-terminus assumed) | Active
CCCCCCCCCCCCCCCC(=O)N[C@@H](CCC(=O)NCCCC[C@H](NC(=O)[C@H](CCC(N)=O)NC(=O)[C@H](CC(C)C)NC(=O)[C@H](C)NC(=O)[C@@H]1CSSC[C@H](NC(=O)[C@@H](N)CCCCN)C(=O)N[C@@H](CC(N)=O)C(=O)N[C@@H]([C@@H](C)O)C(=O)N[C@@H](C)C(=O)N[C@@H]([C@@H](C)O)C(=O)N1)C(=O)N[C@@H](CC(C)C)C(=O)N[C@@H](C)C(=O)N[C@@H](CCC(N)=O)C(=O)N[C@@H](CCC(=O)O)C(=O)N[C@@H](CC(C)C)C(=O)N[C@@H](Cc1c[nH]cn1)C(=O)N[C@@H](CCCNC(=N)N)C(=O)N[C@@H](CC(C)C)C(=O)N[C@@H](CCC(N)=O)C(=O)N[C@H](C(=O)N[C@@H](Cc1ccc(O)cc1)C(=O)N1CCC[C@H]1C(=O)N[C@@H](CCCNC(=N)N)C(=O)N[C@H](C(=O)N[C@@H](CC(N)=O)C(=O)N[C@H](C(=O)NCC(=O)N[C@@H](CO)C(=O)N[C@@H](CC(N)=O)C(=O)N[C@H](C(=O)N[C@@H](Cc1ccc(O)cc1)C(N)=O)[C@@H](C)O)C(C)C)[C@@H](C)O)[C@@H](C)O)C(=O)O [Cmpd 193, [K^11ε(γ-Glu(Nα-C16-Chain))]-Cmpd 17] (H-KCNTATCALQK([γGlu-Palmitoyl])LAQELHRLQTYPRTNVGSNTY-NH2; disulfide 2-7 (inferred); N-terminus assumed) | Inactive
CCCCCCCCCCCCCCCC(=O)N[C@@H](CCC(=O)NCCCC[C@H](N)C(=O)N[C@@H](CCCCN)C(=O)N[C@H]1CSSC[C@@H](C(=O)N[C@@H](C)C(=O)N[C@@H](CC(C)C)C(=O)N[C@@H](CCC(N)=O)C(=O)N[C@@H](CCCNC(=N)N)C(=O)N[C@@H](CC(C)C)C(=O)N[C@@H](C)C(=O)N[C@@H](CCC(N)=O)C(=O)N[C@@H](CCC(=O)O)C(=O)N[C@@H](CC(C)C)C(=O)N[C@@H](Cc2c[nH]cn2)C(=O)N[C@@H](CCCNC(=N)N)C(=O)N[C@@H](CC(C)C)C(=O)N[C@@H](CCC(N)=O)C(=O)N[C@H](C(=O)N[C@@H](Cc2ccc(O)cc2)C(=O)N2CCC[C@H]2C(=O)N[C@@H](CCCNC(=N)N)C(=O)N[C@H](C(=O)N[C@@H](CC(N)=O)C(=O)N[C@H](C(=O)NCC(=O)N[C@@H](CO)C(=O)N[C@@H](CC(N)=O)C(=O)N[C@H](C(=O)N[C@@H](Cc2ccc(O)cc2)C(N)=O)[C@@H](C)O)C(C)C)[C@@H](C)O)[C@@H](C)O)NC(=O)[C@H]([C@@H](C)O)NC(=O)[C@H](C)NC(=O)[C@H]([C@@H](C)O)NC(=O)[C@H](CC(N)=O)NC1=O)C(=O)O [Cmpd 195, Kε-(γ-Glu(Nα-C16-Chain))-Cmpd 17] (H-K([γGlu-Palmitoyl])KCNTATCALQRLAQELHRLQTYPRTNVGSNTY-NH2; disulfide 3-8; N-terminus assumed) | Active

Source: patent publication US20140249076A1, “AMYLIN-CALCITONIN CHIMERIC PEPTIDES CONJUGATED TO DURATION ENHANCING MOIETIES” (AMYLIN PHARMACEUTICALS, LLC, priority 2011, published 2014)
